Experimental data published in PubChem BioAssay AID248 (DTP/NCI, 2004).
Values joined by “and” are separate entries in the source; they are usually repeats but may differ in a detail not shown here. Equal values may be shown once. Inconclusive results and toxic doses are left out. Rule as the data show it: active = T/C of 150% or more; inactive = T/C below 125%.

Tested on: L1210 leukemia ip in BDF1 mice, survival T/C
Assay: NCI In Vivo Anticancer Drug Screen. Data for tumor model L1210 Leukemia (intraperitoneal) in B6D2F1 (BDF1) mice
Details: endpoint: mean survival time, higher = longer survival
Method in brief: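 Transplanted-tumor mice were given test agent; controls received vehicle only. Survival readings from the two groups were divided (treated over control).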

[1] = dose: 100.0 mg/kg/injection, schedule: Q04DX003 (ip), vehicle: saline with Tween-80
[2] = dose: 200.0 mg/kg/injection, schedule: Q04DX003 (ip), vehicle: saline with Tween-80
[3] = dose: 400.0 mg/kg/injection, schedule: Q04DX003 (ip), vehicle: saline with Tween-80
[4] = dose: 100.0 mg/kg/injection, schedule: Q04DX002 (ip), vehicle: saline with Tween-80
[5] = dose: 100.0 mg/kg/injection, schedule: Q01DX009 (ip), vehicle: saline
[6] = dose: 100.0 mg/kg/injection, schedule: Q01DX001 (ip), vehicle: carboxymethylcellulose (CMC)
[7] = dose: 200.0 mg/kg/injection, schedule: Q01DX001 (ip), vehicle: carboxymethylcellulose (CMC)
[8] = dose: 100.0 mg/kg/injection, schedule: Q01DX001 (ip), vehicle: saline
[9] = dose: 200.0 mg/kg/injection, schedule: Q01DX001 (ip), vehicle: saline
[10] = dose: 400.0 mg/kg/injection, schedule: Q01DX001 (ip), vehicle: saline

Measured: T/C

CCCC(C)C(C#N)C(=O)OCC (centres undefined)
inactive: [1] 106 % of control | [2] 101 % of control | [3] 105 % of control

CC[C@@]1(O)C[C@H](OC2CC(N(C)C)C(OC3CC(O)C(OC4CCC(=O)C(C)O4)C(C)O3)C(C)O2)c2c(cc3c(c2O)C(=O)c2c(O)ccc(O)c2C3=O)[C@H]1C(=O)OC (some centres undefined)
inactive: dose: 0.5 mg/kg/injection, schedule: Q01DX003 (ip), vehicle: saline 111 % of control | dose: 0.59 mg/kg/injection, schedule: Q01DX001 (ip), vehicle: saline 107 % of control | dose: 0.59 mg/kg/injection, schedule: Q01DX009 (ip), vehicle: saline 111 % of control | dose: 0.59 mg/kg/injection, schedule: Q04DX003 (ip), vehicle: saline 109 % of control | dose: 0.65 mg/kg/injection, schedule: Q01DX009 (ip), vehicle: water 122 % of control | dose: 0.75 mg/kg/injection, schedule: Q01DX009 (ip), vehicle: saline 121 % of control | dose: 0.89 mg/kg/injection, schedule: Q01DX001 (ip), vehicle: saline 107 % of control | dose: 0.89 mg/kg/injection, schedule: Q01DX009 (ip), vehicle: saline 113 % of control | dose: 0.89 mg/kg/injection, schedule: Q04DX003 (ip), vehicle: saline 105 % of control | dose: 1.0 mg/kg/injection, schedule: Q01DX003 (ip), vehicle: saline 113 % of control | dose: 1.0 mg/kg/injection, schedule: Q01DX009 (ip), vehicle: saline 119 % of control | dose: 1.04 mg/kg/injection, schedule: Q04DX003 (ip), vehicle: water 112 % of control | dose: 1.33 mg/kg/injection, schedule: Q01DX001 (ip), vehicle: saline 102 % of control | dose: 1.33 mg/kg/injection, schedule: Q01DX009 (ip), vehicle: saline 120 % of control | dose: 1.33 mg/kg/injection, schedule: Q04DX003 (ip), vehicle: saline 111 % of control | dose: 1.73 mg/kg/injection, schedule: Q04DX003 (ip), vehicle: water 112 % of control | dose: 2.0 mg/kg/injection, schedule: Q01DX001 (ip), vehicle: saline 109 % of control | dose: 2.0 mg/kg/injection, schedule: Q04DX003 (ip), vehicle: saline 107 % of control | dose: 2.59 mg/kg/injection, schedule: Q01DX001 (ip), vehicle: water 112 % of control | dose: 3.0 mg/kg/injection, schedule: Q01DX001 (ip), vehicle: saline 117 % of control | dose: 3.0 mg/kg/injection, schedule: Q01DX009 (ip), vehicle: saline 103 % of control | dose: 3.0 mg/kg/injection, schedule: Q01DX009 (ip), vehicle: water 96 % of control | dose: 12.0 mg/kg/injection, schedule: Q01DX001 (ip), vehicle: water 113 % of control | dose: 20.0 mg/kg/injection, schedule: Q01DX001 (ip), vehicle: water 98 % of control

CCCCCCCCCCCCCCCCCC(=O)Oc1cccc2cccnc12
inactive: [4] 93 % of control | dose: 200.0 mg/kg/injection, schedule: Q04DX002 (ip), vehicle: saline with Tween-80 93 % of control | dose: 400.0 mg/kg/injection, schedule: Q04DX002 (ip), vehicle: saline with Tween-80 106 % of control

COC1(OC)CCP(=S)(c2ccccc2)CC1C#N (centres undefined)
inactive: [1] 100 % of control | [2] 101 % of control | [3] 92 % of control

COc1cc(C(=O)CCC(=O)O)c(OC)c(C)c1C
inactive: dose: 100.0 mg/kg/injection, schedule: Q01DX001 (ip), vehicle: other 93 % of control | dose: 200.0 mg/kg/injection, schedule: Q01DX001 (ip), vehicle: other 96 % of control | dose: 400.0 mg/kg/injection, schedule: Q01DX001 (ip), vehicle: other 91 % of control

CC(=O)OCCCCBr
inactive: [5] 100 % of control | dose: 100.0 mg/kg/injection, schedule: Q04DX003 (ip), vehicle: Klucel (hydroxypropylcellulose) (HPC) 98 % of control | dose: 200.0 mg/kg/injection, schedule: Q01DX009 (ip), vehicle: saline 98 % of control | dose: 200.0 mg/kg/injection, schedule: Q04DX003 (ip), vehicle: Klucel (hydroxypropylcellulose) (HPC) 91 % of control | dose: 400.0 mg/kg/injection, schedule: Q01DX009 (ip), vehicle: saline 98 % of control | dose: 400.0 mg/kg/injection, schedule: Q04DX003 (ip), vehicle: Klucel (hydroxypropylcellulose) (HPC) 94 % of control

Nc1ccc2c(c1)Cc1c-2cc(I)c(O)c1I
inactive: [6] 98 % of control | [7] 101 % of control | dose: 400.0 mg/kg/injection, schedule: Q01DX001 (ip), vehicle: carboxymethylcellulose (CMC) 101 % of control

CC(C)c1cccc(C(C)C)c1OCCOC(=O)Nc1ccc(F)cc1
inactive: dose: 100.0 mg/kg/injection, schedule: Q01DX009 (ip), vehicle: Klucel (hydroxypropylcellulose) (HPC) 101 % of control | dose: 200.0 mg/kg/injection, schedule: Q01DX009 (ip), vehicle: Klucel (hydroxypropylcellulose) (HPC) 117 % of control | dose: 400.0 mg/kg/injection, schedule: Q01DX009 (ip), vehicle: Klucel (hydroxypropylcellulose) (HPC) 109 % of control

O=C(N=c1cc(-c2ccc(Cl)cc2)ss1)C(Cc1ccccc1)N1C(=O)c2ccccc2C1=O (centres undefined)
inactive: dose: 25.0 mg/kg/injection, schedule: Q01DX009 (ip), vehicle: water 102 % of control | dose: 50.0 mg/kg/injection, schedule: Q01DX009 (ip), vehicle: water 102 % of control | dose: 100.0 mg/kg/injection, schedule: Q01DX009 (ip), vehicle: water 96 % of control | dose: 200.0 mg/kg/injection, schedule: Q01DX009 (ip), vehicle: water 95 % of control | dose: 400.0 mg/kg/injection, schedule: Q01DX009 (ip), vehicle: water 87 % of control

COC(=O)CCN1CCN(c2ccccc2)CC1
inactive: [8] 98 % of control | [9] 98 % of control | [10] 97 % of control

CCOc1nc2ccccc2c2cc3ccccc3cc12
inactive: [8] 103 % of control | [9] 109 % of control | [10] 111 % of control

CCOC(=O)c1nn(C)c(=S)[nH]c1=O
inactive: dose: 100.0 mg/kg/injection, schedule: Q01DX Z (ip), vehicle: methylcellulose (MC) 92 % of control | dose: 200.0 mg/kg/injection, schedule: Q01DX Z (ip), vehicle: methylcellulose (MC) 90 % of control

O=c1c2ccccc2[nH]c2cc(-n3nnc4ccccc4c3=O)ccc12
inactive: dose: 75.0 mg/kg/injection, schedule: Q01DX001 (ip), vehicle: saline 88 % of control | dose: 150.0 mg/kg/injection, schedule: Q01DX001 (ip), vehicle: saline 88 % of control | dose: 300.0 mg/kg/injection, schedule: Q01DX001 (ip), vehicle: saline 98 % of control

COc1cc2c(cc1OC)/C(=C(\C#N)CCC(C)=O)NCC2
inactive: [6] 92 % of control | [7] 92 % of control

CC/C(=N/N=C(N)N)C(=O)O
inactive: dose: 15.0 mg/kg/injection, schedule: Q01DX Z (ip), vehicle: carboxymethylcellulose (CMC) 102 % of control | dose: 30.0 mg/kg/injection, schedule: Q01DX Z (ip), vehicle: carboxymethylcellulose (CMC) 95 % of control | dose: 60.0 mg/kg/injection, schedule: Q01DX Z (ip), vehicle: carboxymethylcellulose (CMC) 103 % of control and 106 % of control | dose: 120.0 mg/kg/injection, schedule: Q01DX Z (ip), vehicle: carboxymethylcellulose (CMC) 96 % of control and 98 % of control | dose: 240.0 mg/kg/injection, schedule: Q01DX Z (ip), vehicle: carboxymethylcellulose (CMC) 100 % of control | dose: 480.0 mg/kg/injection, schedule: Q01DX Z (ip), vehicle: carboxymethylcellulose (CMC) 102 % of control

CNC1(Cc2ccc(F)cc2)CCC1
inactive: [5] 100 % of control

CCc1c(C)c2n(c1C)C(=O)C=C2N(CC)CC
inactive: [8] 106 % of control | [9] 102 % of control | [10] 96 % of control

Cc1ccc2nc3c(cc(F)c4ccccc43)c(C)c2c1
inactive: dose: 50.0 mg/kg/injection, schedule: Q01DX009 (ip), vehicle: saline with Tween-80 105 % of control | dose: 100.0 mg/kg/injection, schedule: Q01DX009 (ip), vehicle: saline with Tween-80 87 % of control

S=C1SCCS1
inactive: dose: 100.0 mg/kg/injection, schedule: Q01DX009 (ip), vehicle: saline sonified 98 % of control | dose: 200.0 mg/kg/injection, schedule: Q01DX009 (ip), vehicle: saline sonified 95 % of control | dose: 400.0 mg/kg/injection, schedule: Q01DX009 (ip), vehicle: saline sonified 97 % of control

CCC(C)Nc1ccc(NS(=O)(=O)CCl)cc1 (centres undefined)
inactive: dose: 25.0 mg/kg/injection, schedule: Q04DX002 (ip), vehicle: saline with Tween-80 97 % of control | dose: 50.0 mg/kg/injection, schedule: Q04DX002 (ip), vehicle: saline with Tween-80 106 % of control | [4] 100 % of control
